In patent publication US20250100977A1, “MERCAPTOPYRIMIDINE COMPOUNDS THAT INHIBIT NONHOMOLOGOUS END JOINING AND METHODS THEREOF” (INDIAN INSTITUTE OF SCIENCE, priority 2021, published 2025):
One block for each compound: values may come before it.

How the values were obtained:
HeLa = test: Cytotoxicity (viable cells) in HeLa; type: cell-based; conditions: Homo sapiens, HeLa, 48 h, Table 1; 48 h; read-out: IC50 in cancer cell lines, HeLa
Method: (§1) The compounds of the present invention were screened initially in leukemic and cervical cancer cell lines (Table 1). […] In cervical cancer cell line HeLa, IC50 was 5 and 2 μM, respectively for SCR116 and SCR132 (FIG. 5A-B).
(§2) Ligase IV specificity of the compounds of the present invention inside the cells were also determined using Ligase IV knock out (KO) cell line N114 compared to the wild type Nalm6 (Table 2, FIGS. 5C, D, E and F). […] Table 1 showing IC50 of SCR7 derivatives in cancer cell lines Nalm6 and HeLa. IC50 was calculated using GraphPad Prism software from the percentage of viable cells following treatment with the compounds at 48 h. Table 2 showing IC50 of SCR116 and SCR132 in a panel of 16 cancer cell lines.

Nalm6 = test: Cytotoxicity (viable cells) in Nalm6; type: cell-based; conditions: Homo sapiens, NALM-6; Table 1; 48 h; read-out: IC50 in cancer cell lines, Nalm6
Method: as §1, §2

rat testicular extracts = test: Inhibition of end joining of rat testicular extracts (NHEJ); type: biochemical; conditions: 500 μM; rat testicular extract
Method: The compounds of the present invention were tested for their effects on inhibition of DNA end joining reactions using rat tissue extracts and purified DNA Ligase IV/XRCC4. Rat testicular extracts were prepared from testes of 4-6 week old male Wistar rats, Rattus norvegicus using ammonium sulphate precipitation method. To determine end joining of cell-free extracts, radiolabeled double-stranded (ds) oligomeric DNA substrate was incubated with rat testicular extract at 25° C. in suitable NHEJ buffer. Extracts were incubated for 30 min with the compounds of Formula I (01-41, 500 μM) as prepared in Example 1, and then radioactive DNA substrate was added to the reaction mixture and incubated for 1 h at 25° C. Reactions were stopped using EDTA, and products were purified using phenol: chloroform extraction and loaded on denaturing polyacrylamide gel. […] Joining efficiency was calculated using the intensity of product bands (150 bp or higher) in individual lanes in Multi Gauge software as compared to control (lanes 2,3). Lane 1 denotes radioactive substrate in absence of protein or inhibitor, while M denotes radiolabeled 50 bp DNA ladder.
(§3) Effects of these compounds on NHEJ and Ligase IV mediated joining were evaluated (FIG. 4A-K). The reactions were terminated by EDTA (10 mM), products were purified using phenol/chloroform, precipitated with chilled ethanol and glycogen, and resolved on 8% denaturing PAGE. The gel was dried, exposed, and signal was detected using phosphor Imager FLA9000 (Fuji, Japan), and quantified in MultiGauge software expressed as Photo Stimulated Luminescence Units (PSLU). Inhibition of end joining was reported at 200 μM and 100 μM, respectively for SCR116 and SCR132 (FIGS. 4A, B, C and D), with >50% inhibition at 200 and 100 μM concentrations, respectively. […] FIG. 4K depict the purification profile of Ligase IV and XRCC4. Further FIGS. 4L-M represent inhibition of end joining catalysed by (FIG. 4L) purified Ligase III/XRCCI in presence of SCR116 and SCR132 (50, 100, 200, 500, 1000 μM) and (FIG. 4M) by purified Ligase I in presence of increasing concentrations of SCR116 and SCR132 (10, 50, 100, 200, 500, 1000 μM).

DNA Ligase IV/XRCC4 = biological target: T1, DNA Ligase IV/XRCC4 (Homo sapiens, UniProt P49917); test: Inhibition of end joining by purified DNA Ligase IV/XRCC4; type: biochemical; conditions: 200 μM; purified Ligase IV/XRCC4
T1 construct: made in house; host or cells: bacteria
Method: The compounds of Formula I were evaluated for their specific inhibition activity towards enzyme DNA Ligase IV. DNA Ligase IV/XRCC4 was purified from bacteria using Ni-NTA column (FIG. 2A), and used for evaluation of inhibition of end joining of the compounds (01-41) at 200 μM (FIGS. 2B, C and D). The compounds were incubated with purified Ligase IV/XRCC4 in suitable NHEJ buffer at 25° C. for 30 min, followed by addition of radiolabeled DNA, and further incubation for 1 h at 25° C. Products were purified using phenol: chloroform and run on denaturing PAGE.
as §3

[1] = tested on: Ligase IV knock out (KO) cell line N114; conditions: Vartak et al. 2018; cited from earlier work

T1 sequence (P49917 whole entry): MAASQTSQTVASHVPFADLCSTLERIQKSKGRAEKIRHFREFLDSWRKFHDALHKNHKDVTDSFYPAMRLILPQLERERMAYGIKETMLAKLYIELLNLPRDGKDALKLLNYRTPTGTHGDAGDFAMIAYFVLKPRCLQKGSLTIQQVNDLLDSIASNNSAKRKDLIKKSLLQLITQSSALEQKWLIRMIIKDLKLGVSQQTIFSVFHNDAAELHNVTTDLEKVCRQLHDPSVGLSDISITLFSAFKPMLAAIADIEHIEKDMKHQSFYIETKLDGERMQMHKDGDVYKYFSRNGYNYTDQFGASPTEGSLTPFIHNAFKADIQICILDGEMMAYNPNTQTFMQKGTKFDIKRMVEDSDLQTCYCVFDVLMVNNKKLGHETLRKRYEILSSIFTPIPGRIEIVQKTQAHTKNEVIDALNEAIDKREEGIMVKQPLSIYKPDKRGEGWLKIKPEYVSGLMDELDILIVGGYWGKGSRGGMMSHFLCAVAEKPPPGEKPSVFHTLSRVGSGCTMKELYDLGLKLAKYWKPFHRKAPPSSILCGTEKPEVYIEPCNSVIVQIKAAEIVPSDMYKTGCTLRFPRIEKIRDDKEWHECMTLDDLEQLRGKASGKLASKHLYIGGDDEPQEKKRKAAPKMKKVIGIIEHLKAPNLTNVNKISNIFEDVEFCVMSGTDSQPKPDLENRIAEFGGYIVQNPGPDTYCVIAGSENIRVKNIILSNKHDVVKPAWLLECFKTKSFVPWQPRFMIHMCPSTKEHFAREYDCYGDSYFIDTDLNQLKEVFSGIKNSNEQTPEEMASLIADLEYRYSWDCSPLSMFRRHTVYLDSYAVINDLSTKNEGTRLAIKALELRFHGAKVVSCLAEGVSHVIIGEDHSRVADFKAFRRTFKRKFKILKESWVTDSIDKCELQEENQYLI
T1 sequence (Q13426 whole entry partner): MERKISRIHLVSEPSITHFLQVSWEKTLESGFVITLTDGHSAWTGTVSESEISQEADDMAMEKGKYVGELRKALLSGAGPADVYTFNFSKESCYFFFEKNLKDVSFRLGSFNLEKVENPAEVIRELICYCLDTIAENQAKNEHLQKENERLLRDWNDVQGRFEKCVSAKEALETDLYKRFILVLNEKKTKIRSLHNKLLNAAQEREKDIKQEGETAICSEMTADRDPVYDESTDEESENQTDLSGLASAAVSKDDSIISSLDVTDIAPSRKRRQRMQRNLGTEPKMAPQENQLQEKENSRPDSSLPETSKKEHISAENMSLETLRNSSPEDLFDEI

SMILES: Nc1nc(S)nc(O)c1/N=C/c1cccs1 [Compound 01, (E)-6-amino-2-mercapto-5-((thiophen-2-ylmethylene)amino)pyrimidin-4-ol]
- IC50 (HeLa): 17.7 µM
- IC50 (Nalm6): 23.3 µM

SMILES: Nc1nc(S)nc(O)c1/N=C/c1ncc[nH]1 [Compound 04, (E)-5-(((1H-imidazol-2-yl)methylene)amino)-6-amino-2-mercaptopyrimidin-4-ol]
- IC50 (HeLa): 95 µM
- IC50 (Nalm6): 29.7 µM

SMILES: Nc1nc(S)nc(O)c1/N=C/c1cncc2ccccc12 [Compound 05, 6-amino-5-{[(E)-isoquinolin-4-ylmethylidene]amino}-2-mercaptopyrimidin-4-ol]
- IC50 (HeLa): 11.9 µM
- IC50 (Nalm6): 18.2 µM

SMILES: Nc1nc(S)nc(O)c1/N=C/c1ccccc1O [Compound 06, (E)-6-amino-5-((2-hydroxybenzylidene)amino)-2-mercaptopyrimidin-4-ol]
- Inhibition of end joining (no joined product observed) (rat testicular extracts): showed inhibition of end joining
- IC50 (HeLa): 17.5 µM
- IC50 (Nalm6): 19.4 µM

SMILES: Nc1nc(S)nc(O)c1/N=C/c1cccnc1 [Compound 07, (E)-6-amino-2-mercapto-5-((pyridin-3-ylmethylene)amino)pyrimidin-4-ol]
- IC50 (HeLa): 28.2 µM
- IC50 (Nalm6): 26.6 µM

- Inhibition of end joining compared with control (DNA Ligase IV/XRCC4): significant inhibition of end joining
SMILES: Nc1nc(S)nc(O)c1/N=C/c1ccc[nH]1 [Compound 12, (E)-5-(((1H-pyrrol-2-yl)methylene)amino)-6-amino-2-mercaptopyrimidin-4-ol]
- Inhibition of end joining (no joined product observed) (rat testicular extracts): showed inhibition of end joining
- IC50 (HeLa): 48.5 µM
- IC50 (Nalm6): 29.5 µM

SMILES: Nc1nc(S)nc(O)c1/N=C/c1nccs1 [Compound 13, (E)-6-amino-2-mercapto-5-((thiazol-2-ylmethylene)amino)pyrimidin-4-ol]
- IC50 (HeLa): 133 µM
- IC50 (Nalm6): 25.6 µM

- Inhibition of end joining compared with control (DNA Ligase IV/XRCC4): significant inhibition of end joining
SMILES: CC(=O)OCc1ccc(/C=N/c2c(N)nc(S)nc2O)o1 [Compound 15, (E)-(5-(((4-amino-6-hydroxy-2-mercaptopyrimidin-5-yl)imino)methyl)furan-2-yl)methylacetate]
- Inhibition of end joining (no joined product observed) (rat testicular extracts): showed inhibition of end joining
- IC50 (HeLa): 79.8 µM
- IC50 (Nalm6): 29.8 µM

SMILES: Nc1nc(S)nc(O)c1/N=C/c1cccc2ccccc12 [Compound 17, (E)-6-amino-2-mercapto-5-((naphthalen-1-ylmethylene)amino)pyrimidin-4-ol]
- IC50 (HeLa): 29.5 µM
- IC50 (Nalm6): 29.7 µM

SMILES: Nc1nc(S)nc(O)c1/N=C/c1ccnc(Cl)c1 [Compound 31, (E)-6-amino-5-(((2-chloropyridin-4-yl)methylene)amino)-2-mercaptopyrimidin-4-ol]
- Inhibition of end joining (no joined product observed) (rat testicular extracts): showed inhibition of end joining
- IC50 (HeLa): 6.95 µM
- IC50 (Nalm6): 4.04 µM

SMILES: Nc1nc(S)nc(O)c1/N=C/c1ccncc1F [Compound 33, (E)-6-amino-5-(((3-fluoropyridin-4-yl)methylene)amino)-2-mercaptopyrimidin-4-ol]
- IC50 (HeLa): 20.8 µM
- IC50 (Nalm6): 2.24 µM

SMILES: N#Cc1ccc(/C=N/c2c(N)nc(S)nc2O)s1 [Compound 34, (E)-5-(((4-amino-6-hydroxy-2-mercaptopyrimidin-5-yl)imino)methyl)thiophene-2-carbonitrile]
- IC50 (HeLa): 41.4 µM
- IC50 (Nalm6): 0.95 µM

SMILES: Nc1nc(S)nc(O)c1/N=C/c1ccc(Br)s1 [Compound 35, (E)-6-amino-5-(((5-bromothiophen-2-yl)methylene)amino)-2-mercaptopyrimidin-4-ol]
- IC50 (HeLa): 18.4 µM
- IC50 (Nalm6): 6.87 µM

SMILES: N#Cc1ccc(/C=N/c2c(N)nc(S)nc2O)cc1 [Compound 36, (E)-4-(((4-amino-6-hydroxy-2-mercaptopyrimidin-5yl)imino)methyl)benzonitrile]
- IC50 (HeLa): 27.2 µM
- IC50 (Nalm6): 2.88 µM

SMILES: CN(C)c1ccc(/C=N/c2c(N)nc(S)nc2O)cc1 [Compound 37, (E)-6-amino-5-((4-(dimethylamino)benzylidene)amino)-2-mercaptopyrimidin-4-ol]
- IC50 (HeLa): 47.8 µM
- IC50 (Nalm6): 15.2 µM

SMILES: Nc1nc(S)nc(O)c1/N=C/c1ccc2ccccc2n1 [Compound 38, (E)-6-amino-2-mercapto-5-((quinolin-2-ylmethylene)amino)pyrimidin-4-ol]
- IC50 (HeLa): 45.8 µM
- IC50 (Nalm6): 25.5 µM

SMILES: COc1cc(/C=N/c2c(N)nc(S)nc2O)ccc1O [Compound 39, (E)-6-amino-5-((4-hydroxy-3-methoxybenzylidene)amino)-2-mercaptopyrimidin-4-ol]
- IC50 (HeLa): 43.2 µM
- IC50 (Nalm6): 33.6 µM

SMILES: Nc1nc(S)nc(O)c1/N=C/c1cc(Br)ccc1O [Compound 40, (E)-6-amino-5-((5-bromo-2-hydroxybenzylidene)amino)-2-mercaptopyrimidin-4-ol]
- Inhibition of end joining (no joined product observed) (rat testicular extracts): showed inhibition of end joining
- IC50 (HeLa): 18.3 µM
- IC50 (Nalm6): 12.6 µM

SMILES: Nc1nc(S)nc(O)c1/N=C/c1cc(F)c(O)c(F)c1 [Compound 41, (E)-6-amino-5-((3,5-difluoro-4-hydroxybenzylidene)amino)-2-mercaptopyrimidin-4-ol]
- IC50 (HeLa): 29.2 µM
- IC50 (Nalm6): 28.8 µM

SMILES: O=c1[nH]c(=S)[nH]c2nc(-c3ccccc3)c(-c3ccccc3)nc12 [SCR7-pyrazine]
- Effect in KO in absence of Ligase IV [1]: nonspecific effects
